The experiment concerns Prostate-specific antigen (PSA) production in LNCaP cells. Put plainly: PSA Assay (inhibition of PSA production in prostate cancer cells, ELISA). Format: cell-based, human. Conditions: Homo sapiens, LNCaP, 72 h, read-out: LNCAP IC50 (uM), inhibition of PSA production, LNCaP cells, R1881 1 ng/ml, three days, seven point assay. The procedure:
PSA Assay (Inhibition Test of the Compound of the Present Invention on Prostate-Specific Antigen (PSA) Production in Various Prostate Cancer Cells).
Androgen dependent LNCaP cells were purchased from the American Type Culture Collection (ATCC, Manassas, Va.). These cells were grown in RPMI 1640 medium supplemented with 10% fetal bovine serum (FBS), 100 U/mL penicillin, 100 μg/mL streptomycin, and 0.25 μg/mL amphotericin B. The cells were maintained at 37° C. and 5% CO2. LNCaP cells between passage 20 and 35 were used for experiments. LNCaP is a hormone sensitive cell line. For the PSA assay, human prostate cancer cells LNCaP were seeded in a 96-well plate at a concentration of 5000 cells/100 μl/well. On the following day, Methyltrienolone (R1881, AR agonist) (final concentration 1 ng/ml), test compounds or bicalutamide (Casodex®, AstraZeneca) (final concentration 0.005 to 20 μM) were added. Three days after the addition, the concentration of PSA in the supernatant of the culture solution was measured by ELISA. ELISAs for human PSA in culture medium were performed using the ultra-sensitive assay procedure and reagents in the Active™ PSA assay kit (Diagnostic Systems Laboratories Inc., Webster, Tex.). Culture medium and standards (200 μl/well) were incubated in antibody-coated plates for 2 h at room temperature on a Titer plate shaker at 500-600 rpm. Wells were then washed five times. The HRP conjugate was diluted 1:20 with assay buffer, and 100 μl was added to all wells. The plates were incubated for 30 min at room temperature on the shaker and washed as before, and 100 μl TMB (3,3′,5,5′-tetramethylbenzidine, 0.4 g/l) was added. The plates were incubated for 10 min on the shaker, and the reaction was terminated with 100 μl stop solution. The plates were read using a plate reader at 450 nm with a 650 nm reference filter. PSA levels were normalized for differences in growth of LNCaP cells following various treatments as determined by the MTS assay. IC50 of PSA was calculated based on a seven point assay (concentrations of tested compound) and expressed as micromolar (uM).
For orientation: In an ELISA, binding on a coated surface is turned into a signal by an enzyme label.

As to `CNC(=O)C(C)(C)CCc1ccc(N2C(=S)N(c3ccc(C#N)c(C(F)(F)F)c3F)C(=O)C2(C)C)cc1` [Example 22, 4-{4-[3-(4-Cyano-2-fluoro-3-trifluoromethyl-phenyl)-5,5-dimethyl-4-oxo-2-thioxo-imidazolidin-1-yl]-phenyl}-2,2,N-trimethyl-butyramide], the IC50 turned out to be 0.6 µM. In the case of `CNC(=O)C(C)(C)CCc1ccc(N2C(=S)N(c3ccc(C#N)c(OC)c3F)C(=O)C2(C)C)cc1` [Example 23, 4-{4-[3-(4-Cyano-2-fluoro-3-methoxy-phenyl)-5,5-dimethyl-4-oxo-2-thioxo-imidazolidin-1-yl]-phenyl}-2,2,N-trimethyl-butyramide], the IC50 is 0.89 µM. As to `CNC(=O)C(C)(C)CCc1ccc(N2C(=S)N(c3ccc(C#N)c(Cl)c3F)C(=O)C2(C)C)cc1` [Example 24, 4-{4-[3-(3-Chloro-4-cyano-2-fluoro-phenyl)-5,5-dimethyl-4-oxo-2-thioxo-imidazolidin-1-yl]-phenyl}-2,2,N-trimethyl-butyramide], the IC50 turned out to be 1.09 µM. As for `CNC(=O)C(C)(C)CCc1ccc(N2C(=S)N(c3ccc(C#N)c(C(F)(F)F)c3F)C(=O)C23CCC3)cc1` [Example 25, 4-{4-[7-(4-Cyano-2-fluoro-3-trifluoromethyl-phenyl)-8-oxo-6-thioxo-5,7-diaza-spiro[3.4]oct-5-yl]-phenyl}-2,2,N-trimethyl-butyramide], the IC50 is 0.82 µM. In the case of `CNC(=O)C(C)(C)CCc1ccc(N2C(=S)N(c3ccc(C#N)c(OC)c3F)C(=O)C23CCC3)cc1` [Example 26, 4-{4-[7-(4-Cyano-2-fluoro-3-methoxy-phenyl)-8-oxo-6-thioxo-5,7-diaza-spiro[3.4]oct-5-yl]-phenyl}-2,2,N-trimethyl-butyramide], the IC50 came to 0.97 µM. As to `CNC(=O)C(C)(C)CCc1ccc(N2C(=S)N(c3ccc(C#N)c(Cl)c3F)C(=O)C23CCC3)cc1` [Example 27, 4-{4-[7-(3-Chloro-4-cyano-2-fluoro-phenyl)-8-oxo-6-thioxo-5,7-diaza-spiro[3.4]oct-5-yl]-phenyl}-2,2,N-trimethyl-butyramide], the IC50 turned out to be 0.47 µM.

With `CC1(C)C(=O)N(c2ccc(C#N)c(C(F)(F)F)c2F)C(=S)N1c1ccc(CCCC#N)c(F)c1` [Example 28, 4-(3-(4-(3-cyanopropyl)-3-fluorophenyl)-4,4-dimethyl-5-oxo-2-thioxoimidazolidin-1-yl)-3-fluoro-2-(trifluoromethyl)benzonitrile], the IC50 came out at 0.11 µM.

For `CC1(C)C(=O)N(c2ccc(C#N)c(Cl)c2F)C(=S)N1c1ccc(CCCC#N)c(F)c1` [Example 29, 2-chloro-4-(3-(4-(3-cyanopropyl)-3-fluorophenyl)-4,4-dimethyl-5-oxo-2-thioxoimidazolidin-1-yl)-3-fluorobenzonitrile], the IC50 was found to be 0.29 µM.

Consider `COc1c(C#N)ccc(N2C(=O)C(C)(C)N(c3ccc(CCCC#N)c(F)c3)C2=S)c1F` [Example 30, 4-(3-(4-(3-cyanopropyl)-3-fluorophenyl)-4,4-dimethyl-5-oxo-2-thioxoimidazolidin-1-yl)-3-fluoro-2-methoxybenzonitrile], for which the IC50 was determined as 0.29 µM.

With `N#CCCCc1ccc(N2C(=S)N(c3ccc(C#N)c(C(F)(F)F)c3F)C(=O)C23CCC3)cc1F` [Example 31, 4-(5-(4-(3-cyanopropyl)-3-fluorophenyl)-8-oxo-6-thioxo-5,7-diazaspiro[3.4]octan-7-yl)-3-fluoro-2-(trifluoromethyl)benzonitrile], the IC50 was found to be 0.53 µM. In the case of `COc1c(C#N)ccc(N2C(=O)C3(CCC3)N(c3ccc(CCCC#N)c(F)c3)C2=S)c1F` [Example 32, 4-(5-(4-(3-cyanopropyl)-3-fluorophenyl)-8-oxo-6-thioxo-5,7-diazaspiro[3.4]octan-7-yl)-3-fluoro-2-methoxybenzonitrile], the IC50 worked out at 0.36 µM. Consider `N#CCCCc1ccc(N2C(=S)N(c3ccc(C#N)c(Cl)c3F)C(=O)C23CCC3)cc1F` [Example 33, 2-chloro-4-(5-(4-(3-cyanopropyl)-3-fluorophenyl)-8-oxo-6-thioxo-5,7-diazaspiro[3.4]octan-7-yl)-3-fluorobenzonitrile], for which the IC50 amounted to 0.64 µM.

As to `CNC(=O)C1(CCc2ccc(N3C(=S)N(c4ccc(C#N)c(C(F)(F)F)c4F)C(=O)C3(C)C)cc2)CCC1` [Example 34, 1-(2-{4-[3-(4-Cyano-2-fluoro-3-trifluoromethyl-phenyl)-5,5-dimethyl-4-oxo-2-thioxo-imidazolidin-1-yl]-phenyl}-ethyl)-cyclobutanecarboxylic acid methylamide], the IC50 amounted to 0.62 µM.

Turning to `CNC(=O)C1(CCc2ccc(N3C(=S)N(c4ccc(C#N)c(C(F)(F)F)c4F)C(=O)C34CCC4)cc2)CCC1` [Example 35, 1-(2-{4-[7-(4-Cyano-2-fluoro-3-trifluoromethyl-phenyl)-8-oxo-6-thioxo-5,7-diaza-spiro[3.4]oct-5-yl]-phenyl}-ethyl)-cyclobutanecarboxylic acid methylamide], the IC50 amounted to 0.44 µM. Regarding `CC1(C)C(=O)N(c2ccc(C#N)c(C(F)(F)F)c2F)C(=S)N1c1ccc(CCCC#N)nc1` [Example 36, 4-(3-(6-(3-cyanopropyl)pyridin-3-yl)-4,4-dimethyl-5-oxo-2-thioxoimidazolidin-1-yl)-3-fluoro-2-(trifluoromethyl)benzonitrile], the IC50 was 0.35 µM. As to `CC1(C)C(=O)N(c2ccc(C#N)c(Cl)c2F)C(=S)N1c1ccc(CCCC#N)nc1` [Example 37, 2-chloro-4-(3-(6-(3-cyanopropyl)pyridin-3-yl)-4,4-dimethyl-5-oxo-2-thioxoimidazolidin-1-yl)-3-fluorobenzonitrile], the IC50 stood at 0.65 µM. The figure for `CC1(C)C(=O)N(c2ccc(C#N)c(C(F)(F)F)c2)C(=S)N1c1ccc(CCCC#N)nc1` [Example 38, 4-(3-(6-(3-cyanopropyl)pyridin-3-yl)-4,4-dimethyl-5-oxo-2-thioxoimidazolidin-1-yl)-2-(trifluoromethyl)benzonitrile] is 0.52 µM. The figure for `COc1c(C#N)ccc(N2C(=O)C(C)(C)N(c3ccc(CCCC#N)nc3)C2=S)c1F` [Example 39, 4-(3-(6-(3-cyanopropyl)pyridin-3-yl)-4,4-dimethyl-5-oxo-2-thioxoimidazolidin-1-yl)-3-fluoro-2-methoxybenzonitrile] is 0.75 µM; for `CC1(C)C(=O)N(c2ccc(C#N)c(C(F)(F)F)c2F)C(=S)N1c1ccc(CCCC#N)cc1` [Example 40, 4-(3-(4-(3-cyanopropyl)phenyl)-4,4-dimethyl-5-oxo-2-thioxoimidazolidin-1-yl)-3-fluoro-2-(trifluoromethyl)benzonitrile] it is 0.3 µM.

Turning to `CC1(C)C(=O)N(c2ccc(C#N)c(Cl)c2F)C(=S)N1c1ccc(CCCC#N)cc1` [Example 41, 2-chloro-4-(3-(4-(3-cyanopropyl)phenyl)-4,4-dimethyl-5-oxo-2-thioxoimidazolidin-1-yl)-3-fluorobenzonitrile], the IC50 was determined as 0.32 µM.

Take `N#CCCCc1ccc(N2C(=S)N(c3ccc(C#N)c(C(F)(F)F)c3F)C(=O)C23CCC3)cc1` [Example 42, 4-(5-(4-(3-cyanopropyl)phenyl)-8-oxo-6-thioxo-5,7-diazaspiro[3.4]octan-7-yl)-3-fluoro-2-(trifluoromethyl)benzonitrile]: the IC50 is 0.85 µM. Regarding `N#CCCCc1ccc(N2C(=S)N(c3ccc(C#N)c(Cl)c3F)C(=O)C23CCC3)cc1` [Example 43, 2-chloro-4-(5-(4-(3-cyanopropyl)phenyl)-8-oxo-6-thioxo-5,7-diazaspiro[3.4]octan-7-yl)-3-fluorobenzonitrile], the IC50 was found to be 0.59 µM.

The values are drawn from patent publication US9216957B2, “Androgen receptor antagonists and uses thereof” (SUZHOU KINTOR PHARMACEUTICALS, INC., priority 2011, dated 2015).
